# Measured values taken from patent publication US9950062B2, “Compounds and compositions as TLR activity modulators” (priority 2009, dated 2018).
# Tests used:
# [1] = Adsorption to aluminum hydroxide, LC-MS/MS of supernatant; conditions: 10 mM histidine buffer pH 6.8; final compound concentration 0.1 mg/mL; 37° C. for 5 hours; 100% minus % unbound
# Procedure: The resulting solution was diluted 10-fold with blank histidine buffer to a final compound concentration of 0.1 mg/mL. Diluted solutions were incubated at 37° C. for 5 hours. The samples were centrifuged at 14,000 rpm for 10 minutes to pellet the insoluble. The supernatant (along with an internal standard) was then evaluated by LC-MS/MS using a ballistic gradient (from 5% CH3CN-0.5% formic acid to 95% CH3CN-1.0% formic acid in 3.5 minutes) on a Waters Atlantis dC18 (50 mm×2.1 mm) column at room temperature against a calibration curve prepared at known compound concentrations ranging from 0.005 to 50 μM. The concentration in the supernatant was calculated as % unbound to alum compared to control; the % bound to alum was calculated as 100% minus % unbound.
# five different strains = test: Strain coverage of sera after immunization with modified 5CVMB; assay type: in vivo, MenB; conditions: compound pre-adsorbed to aluminium hydroxide
# Source text: 2010 claiming priority from U.S. Ser. No. 61/237,576 (SEQ ID NO: 126 therein).
# [2] = Muscle levels 24 hours after intramuscular injection; conditions: 24 hours after intramuscular injection (100 μg) with protein antigens, Balb/C mice
smiles,measurement,setting,value
"Cc1cc(OCCOCCOCCP(=O)(O)O)ccc1CCc1cnc2c(N)nc3cc(CCC(=O)O)ccc3c2c1 [Compound 20, 3-(5-amino-2-(2-methyl-4-(2-(2-(2-phosphonoethoxy)ethoxy)ethoxy)phenethyl)benzo[f][1,7]naphthyridin-8-yl)propanoic acid]",% bound to alum,[1],97.0%
same,strain coverage compared to aluminium hydroxide alone,five different strains,improves the strain coverage
same,muscle level of compound,[2]; with aluminium hydroxide adjuvant,readily detected
same,muscle level of compound,[2]; without aluminium hydroxide adjuvant,undetectable
